What follows are compounds tested on P. falciparum (NF54 or 3D7 strain) (assay: Assay for P. falciparum proliferation in infected human blood cells (SYBR Green)). Settings: NF54 or 3D7 infected human erythrocytes, 72 hours; read-out: EC50 (nM), inhibitory efficacy in delaying P. falciparum proliferation in infected human blood cells.
Format: cell-based, Plasmodium falciparum
Outline: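 Infected erythrocytes (NF54 or 3D7; final 2.5% hematocrit, 0.3% parasitemia) were incubated with compounds for 72 h at 37 °C in low oxygen (3% O2, 4% CO2, 93% N2).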

Row | EC50 [nM] | Compound
1 | 607 | O=C(c1cn2c(-c3ccc(C(F)(F)F)cc3)cnc2cn1)N1CCOc2ccccc21 [Compound 306, ({3-[4-(trifluoromethyl)phenyl]imidazo[1,2-a]pyrazin-6-yl}carbonyl)-3,4-dihydro-2H-1,4-benzoxazine]

Same assay, conditions: Plasmodium falciparum, Erythrocyte, 72 h, NF54 or 3D7 infected human erythrocytes, 72 hours; read-out: EC50 (nM), inhibitory efficacy in delaying P. falciparum proliferation in infected human blood cells

Row | Compound | EC50 [nM]
2 | COc1ncc(N(C)C(=O)c2cn3c(-c4ccc(C(F)(F)F)cc4)cnc3cn2)cc1C [Compound 288, N-(6-methoxy-5-methylpyridin-3-yl)-N-methyl-3-[4-(trifluoromethyl)phenyl]imidazo[1,2-a]pyrazine-6-carboxamide] | 565
3 | CN(C)CCNC(=O)c1ccc(-c2cnc3cnc(C(=O)N(C)c4ccc(C#N)cc4)cn23)cc1 [Compound 291, N-(4-cyanophenyl)-3-(4-{[2-(dimethylamino)ethyl]carbamoyl}phenyl)-N-methylimidazo[1,2-a]pyrazine-6-carboxamide] | 1160
4 | CN(C(=O)c1cn2c(-c3ccc(C(F)(F)F)cc3)cnc2cn1)c1ccc(C#N)cc1F [Compound 293, N-(4-cyano-2-fluorophenyl)-N-methyl-3-[4-(trifluoromethyl)phenyl]imidazo[1,2-a]pyrazine-6-carboxamide] | 76
5 | CN(C(=O)N1CCC(C)(C)CC1)c1cn2c(-c3ccc(C(F)(F)F)cc3)cnc2cn1 [Compound 294, N,4,4-trimethyl-N-{3-[4-(trifluoromethyl)phenyl]imidazo[1,2-a]pyrazin-6-yl}piperidine-1-carboxamide] | 2120
6 | CN(C(=O)c1cn2c(-c3ccc(NC(=O)CN)nc3)cnc2cn1)c1ccc(C#N)cc1 [Compound 295, 3-[6-(2-aminoacetamido)pyridin-3-yl]-N-(4-cyanophenyl)-N-methylimidazo[1,2-a]pyrazine-6-carboxamide] | 237
7 | COc1cc(N(C)C(=O)c2cn3c(-c4ccc(C(F)(F)F)cc4)cnc3cn2)ccn1 [Compound 296, N-(2-methoxypyridin-4-yl)-N-methyl-3-[4-(trifluoromethyl)phenyl]imidazo[1,2-a]pyrazine-6-carboxamide] | 1280
8 | Cc1ccc(-c2cnc3cnc(C(=O)N(C)c4ccc(C#N)cc4)cn23)cn1 [Compound 297, N-(4-cyanophenyl)-N-methyl-3-(6-methylpyridin-3-yl)imidazo[1,2-a]pyrazine-6-carboxamide] | 1290
9 | CCn1nccc1N(C)C(=O)c1cn2c(-c3ccc(C(F)(F)F)cc3)cnc2cn1 [Compound 298, N-(1-ethyl-1H-pyrazol-5-yl)-N-methyl-3-[4-(trifluoromethyl)phenyl]imidazo[1,2-a]pyrazine-6-carboxamide] | 1070
10 | CN(C(=O)c1cn2c(-c3ccc(NC(C)(C)CNC(=O)OC(C)(C)C)cc3)cnc2cn1)c1ccc(C#N)cc1 [Compound 300, tert-butyl N-{2-[(4-{6-[(4-cyanophenyl)(methyl)carbamoyl]imidazo[1,2-a]pyrazin-3-yl}phenyl)amino]-2-methylpropyl}carbamate] | 2990
11 | CN(C(=O)c1cn2c(-c3ccc4[nH]ccc4c3)cnc2cn1)c1ccc(Cl)nc1 [Compound 301, N-(6-chloropyridin-3-yl)-3-(1H-indol-5-yl)-N-methylimidazo[1,2-a]pyrazine-6-carboxamide] | 1200
12 | COc1ccc(-c2ccc(N(C)C(=O)c3cn4c(-c5ccc(OC)cc5C)cnc4cn3)cn2)c(C)c1 [Compound 302, 3-(4-methoxy-2-methylphenyl)-N-[6-(4-methoxy-2-methylphenyl)pyridin-3-yl]-N-methylimidazo[1,2-a]pyrazine-6-carboxamide] | 1850
13 | COc1ccncc1N(C)C(=O)c1cn2c(-c3ccc(C(F)(F)F)cc3)cnc2cn1 [Compound 303, N-(4-methoxypyridin-3-yl)-N-methyl-3-[4-(trifluoromethyl)phenyl]imidazo[1,2-a]pyrazine-6-carboxamide] | 1280
14 | O=C(c1cn2c(-c3ccc(C(F)(F)F)cc3)cnc2cn1)N1CCOc2cc(F)ccc21 [Compound 305, 7-fluoro-4-({3-[4-(trifluoromethyl)phenyl]imidazo[1,2-a]pyrazin-6-yl}carbonyl)-3,4-dihydro-2H-1,4-benzoxazine] | 457
15 | CN(C(=O)c1cn2c(-c3ccc(NC(=O)C4(CN)CC4)cc3)cnc2cn1)c1ccc(C#N)cc1 [Compound 307, 3-(4-{[1-(aminomethyl)cyclopropane]amido}phenyl)-N-(4-cyanophenyl)-N-methylimidazo[1,2-a]pyrazine-6-carboxamide] | 1070
16 | CN(C(=O)c1cn2c(-c3cnc4[nH]ccc4c3)cnc2cn1)c1ccc(Cl)nc1 [Compound 312, N-(6-chloropyridin-3-yl)-N-methyl-3-{1H-pyrrolo[2,3-b]pyridin-5-yl}imidazo[1,2-a]pyrazine-6-carboxamide] | 2640
17 | CN(C(=O)c1cn2c(-c3ccc(C(F)(F)F)cc3)cnc2cn1)c1ccc(-n2cncn2)cc1 [Compound 313, N-methyl-N-[4-(1H-1,2,4-triazol-1-yl)phenyl]-3-[4-(trifluoromethyl)phenyl]imidazo[1,2-a]pyrazine-6-carboxamide] | 1320
18 | CN(C(=O)c1cn2c(-c3ccc(NS(C)(=O)=O)cc3)cnc2cn1)c1ccc(C#N)cc1 [Compound 314, N-(4-cyanophenyl)-3-(4-methanesulfonamidophenyl)-N-methylimidazo[1,2-a]pyrazine-6-carboxamide] | 1040
19 | N#Cc1ccc2c(c1)OCCN2C(=O)c1cn2c(-c3ccc(C(F)(F)F)cc3)cnc2cn1 [Compound 315, 4-({3-[4-(trifluoromethyl)phenyl]imidazo[1,2-a]pyrazin-6-yl}carbonyl)-3,4-dihydro-2H-1,4-benzoxazine-7-carbonitrile] | 2420
20 | CS(=O)(=O)c1ccc2c(c1)CCCN2C(=O)c1cn2c(-c3ccc(C(F)(F)F)cc3)cnc2cn1 [Compound 316, 6-methanesulfonyl-1-({3-[4-(trifluoromethyl)phenyl]imidazo[1,2-a]pyrazin-6-yl}carbonyl)-1,2,3,4-tetrahydroquinoline] | 1890
21 | COC(=O)Nc1ccc(-c2cnc3cnc(CN(C)c4ccc(C)cn4)cn23)cc1 [Compound 318, methyl N-[4-(6-{[methyl(5-methylpyridin-2-yl)amino]methyl}imidazo[1,2-a]pyrazin-3-yl)phenyl]carbamate] | 2310
22 | CN(C(=O)c1cn2c(-c3cc4ccccc4[nH]3)cnc2cn1)c1ccc(-c2cc3ccccc3[nH]2)nc1 [Compound 319, 3-(1H-indol-2-yl)-N-[6-(1H-indol-2-yl)pyridin-3-yl]-N-methylimidazo[1,2-a]pyrazine-6-carboxamide] | 3140
23 | Cc1n[nH]c2ccc(-c3cnc4cnc(C(=O)N(C)c5ccc(Cl)nc5)cn34)cc12 [Compound 320, N-(6-chloropyridin-3-yl)-N-methyl-3-(3-methyl-1H-indazol-5-yl)imidazo[1,2-a]pyrazine-6-carboxamide] | 2210

Results, then the compound that gave them:

Row | EC50 [nM] | Compound
24 | 972 | Cc1ccc(N(C)Cc2cn3c(-c4ccc(C(F)(F)F)cc4)cnc3cn2)nc1 [Compound 287, N,5-dimethyl-N-({3-[4-(trifluoromethyl)phenyl]imidazo[1,2-a]pyrazin-6-yl}methyl)pyridin-2-amine]
25 | 1500 | Cc1ccc(C(=O)N(C)c2cn3c(-c4ccc(C(F)(F)F)cc4)cnc3cn2)cc1 [Compound 289, N,4-dimethyl-N-{3-[4-(trifluoromethyl)phenyl]imidazo[1,2-a]pyrazin-6-yl}benzamide]
26 | 784 | COc1cccc(N(C)C(=O)c2cn3c(-c4ccc(C(F)(F)F)cc4)cnc3cn2)n1 [Compound 290, N-(6-methoxypyridin-2-yl)-N-methyl-3-[4-(trifluoromethyl)phenyl]imidazo[1,2-a]pyrazine-6-carboxamide]
27 | 1130 | Cc1cc(N(C)C(=O)c2cn3c(-c4ccc(C(F)(F)F)cc4)cnc3cn2)ccn1 [Compound 299, N-methyl-N-(2-methylpyridin-4-yl)-3-[4-(trifluoromethyl)phenyl]imidazo[1,2-a]pyrazine-6-carboxamide]
28 | 452 | Cc1cc(N(C)C(=O)c2cn3c(-c4ccc(C(F)(F)F)cc4)cnc3cn2)cnc1Cl [Compound 304, N-(6-chloro-5-methylpyridin-3-yl)-N-methyl-3-[4-(trifluoromethyl)phenyl]imidazo[1,2-a]pyrazine-6-carboxamide]
29 | 2020 | CN(C(=O)c1ccc(C(F)(F)F)nc1)c1cn2c(-c3ccc(C(F)(F)F)cc3)cnc2cn1 [Compound 308, N-methyl-6-(trifluoromethyl)-N-{3-[4-(trifluoromethyl)phenyl]imidazo[1,2-a]pyrazin-6-yl}pyridine-3-carboxamide]
30 | 611 | Cc1ccncc1N(C)C(=O)c1cn2c(-c3ccc(C(F)(F)F)cc3)cnc2cn1 [Compound 309, N-methyl-N-(4-methylpyridin-3-yl)-3-[4-(trifluoromethyl)phenyl]imidazo[1,2-a]pyrazine-6-carboxamide]
31 | 2480 | CCOc1ccnc(N(C)C(=O)c2cn3c(-c4ccc(C(F)(F)F)cc4)cnc3cn2)c1 [Compound 310, N-(4-ethoxypyridin-2-yl)-N-methyl-3-[4-(trifluoromethyl)phenyl]imidazo[1,2-a]pyrazine-6-carboxamide]
32 | 2780 | COc1ccc(C(=O)N(C)c2cn3c(-c4ccc(C(F)(F)F)cc4)cnc3cn2)cc1 [Compound 311, 4-methoxy-N-methyl-N-{3-[4-(trifluoromethyl)phenyl]imidazo[1,2-a]pyrazin-6-yl}benzamide]
33 | 1900 | CN(C(=O)c1cn2c(-c3ccc(C(F)(F)F)cc3)cnc2cn1)c1ccc(S(C)(=O)=O)cn1 [Compound 317, N-(5-methanesulfonylpyridin-2-yl)-N-methyl-3-[4-(trifluoromethyl)phenyl]imidazo[1,2-a]pyrazine-6-carboxamide]
34 | 2260 | CN(C(=O)c1cn2c(-c3ccc(C(F)(F)F)cc3)cnc2cn1)c1ccc(N2CCOCC2)cn1 [Compound 321, N-methyl-N-[5-(morpholin-4-yl)pyridin-2-yl]-3-[4-(trifluoromethyl)phenyl]imidazo[1,2-a]pyrazine-6-carboxamide]

— patent publication US20150291598A1 (NOVARTIS AG, priority 2012, published 2015)
